# BindingDB's records for doi:10.1016/s0196-9781(98)00023-0 (Hungarian Academy of Sciences, 1998)
# Where “and” joins values, the source holds several entries; their conditions need not be identical. Identical values can stand only once. Non-standard residues stand in square brackets, D forms with d. Residues, ends and D or L forms follow the SMILES beside them. Tic = O=C(O)[C@@H]1Cc2ccccc2CN1
# Tests used:
# Mu-type opioid receptor = Mu-type opioid receptor (Rattus norvegicus, UniProt P33535)
# [1] = molecular target: Delta-type opioid receptor (Rattus norvegicus, UniProt P33533)
# Chain of Delta-type opioid receptor (P33533 whole entry): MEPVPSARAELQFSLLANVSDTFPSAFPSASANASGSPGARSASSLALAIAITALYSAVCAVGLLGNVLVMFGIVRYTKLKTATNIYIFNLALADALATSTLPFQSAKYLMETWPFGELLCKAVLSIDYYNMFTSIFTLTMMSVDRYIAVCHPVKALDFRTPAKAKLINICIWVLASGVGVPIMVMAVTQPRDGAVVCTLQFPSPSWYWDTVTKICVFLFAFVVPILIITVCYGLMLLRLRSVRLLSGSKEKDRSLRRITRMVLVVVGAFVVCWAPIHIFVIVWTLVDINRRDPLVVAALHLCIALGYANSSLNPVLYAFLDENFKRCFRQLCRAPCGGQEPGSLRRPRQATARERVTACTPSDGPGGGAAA
# Chain of Mu-type opioid receptor (P33535 whole entry): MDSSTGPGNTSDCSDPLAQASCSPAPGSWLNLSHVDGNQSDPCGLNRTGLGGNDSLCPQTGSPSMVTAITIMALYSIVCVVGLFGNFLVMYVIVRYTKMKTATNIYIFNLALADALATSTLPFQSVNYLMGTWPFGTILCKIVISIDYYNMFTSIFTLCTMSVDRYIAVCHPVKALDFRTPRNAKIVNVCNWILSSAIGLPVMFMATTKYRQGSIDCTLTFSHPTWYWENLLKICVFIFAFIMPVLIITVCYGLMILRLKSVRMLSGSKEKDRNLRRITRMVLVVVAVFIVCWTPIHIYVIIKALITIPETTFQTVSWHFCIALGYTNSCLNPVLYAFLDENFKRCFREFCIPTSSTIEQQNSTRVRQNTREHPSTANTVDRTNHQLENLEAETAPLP
Structure (SMILES),Ki (Mu-type opioid receptor),Ki [1]
COc1cccc2c1[C@]13CCN(CC4CC4)C(C2)[C@]1(OC)CCC(=O)C3,4.59 nM and 7.23 nM,
CC(C)C[C@H](NC(=O)[C@H](Cc1ccccc1)NC(=O)CNC(=O)[C@@H](CO)NC(=O)[C@@H](N)Cc1ccc(O)cc1)C(=O)N[C@H](C(=O)O)[C@@H](C)O [DSLET-OH],,7.34 nM and 8.71 nM
Oc1ccc2c3c1OC1c4[nH]c5ccccc5c4CC4(O)[C@H](C2)N(CC2CC2)CCC314 (some centres undefined) [NALTRINDOLE],,10.8 nM and 25.7 nM
N[C@@H](Cc1ccc(O)cc1)C(=O)N1Cc2ccccc2C[C@H]1C(=O)N[C@@H](Cc1ccccc1)C(=O)N[C@@H](Cc1ccccc1)C(=O)O [TIPP] (H-Y[Tic]FF-OH),,9150 nM and 1700 nM
